According to US12018011B2, “Macrocyclic compounds and compositions, and methods of preparing and using the same” (Kura Oncology, Inc., priority 2021, dated 2024):

Assays:
[1] = target: T1, Recombinant human farnesyl transferase (FTase) (Homo sapiens, UniProt P49356); assay: FTase fluorescence assay (farnesylation of dansyl-GCVLS peptide); type: biochemical; settings: recombinant human FTase 2.5 nM, Dansyl-GCVLS 85 nM, FPP 30 nM, 30° C., 50 minutes
T1 construct: purchased Crelux (Martinsried, Germany)

[2] = target: T2, geranylgeranyl transferase type-1 (GGTase) (Homo sapiens, UniProt P53609); assay: GGTase fluorescence assay (dansyl-GCVLL peptide, GGPP); type: biochemical; settings: GGTase 25 nM, Dansyl-GCVLL 10 μM, GGPP 10 μM, 30° C., 120 minutes
T2 construct: purchased Crelux (Martinsried, Germany)
Excerpt: (§1) T24/83 cell line was purchased from the European Collection of Authenticated Cell Cultures (Salisbury, UK). Recombinant human farnesyl transferase (FTase) and geranylgeranyl transferase type-1 (GGTase) were obtained from Crelux (Martinsried, Germany). Dansyl labelled GCVLS peptide was purchased from Bachem (Torrance, CA), and Dansyl labelled GCVLL peptide was purchased from Bio Synthesis (Lewisville, TX). Farnesyl Pyrophosphate (FPP) and Geranylgeranyl pyrophosphate (GGPP) were purchased from Cayman (Ann Arbor, MI).
Geranylgeranyl transferase (GGTase) is a closely related enzyme to farnesyl transferase (FTase). The two enzymes share a common regulatory chain but have distinct individual enzymatic domains. GGTase catalyses the addition of an alternative prenylated side chain to some of the same proteins that may also be farnesylated. Thus, selective inhibitory activity against FTase relative to GGTase is a critical characteristic for FTase inhibitors.
The IC50 value of the compounds disclosed herein as inhibitors of Ftase and/or GGTase, was determined by measuring the concentration (provided in nM) necessary to achieve inhibition of enzyme activity by 50% (IC50). […] Compounds having a low IC50 value against FTase, for example an IC50 (FTase)<100 nM, such as an IC50 (FTase)<10 nM, are preferred. Compounds having a low IC50 value against FTase and a high IC50 value against GGTase, for example an IC50 (FTase)<100 nM, such as an IC50 (FTase)<10 nM, and an IC50 (GGTase)>100 nM, are potent and selective inhibitors of FTase, and are particularly preferred.
The inhibition activities of the compounds disclosed herein against Ftase and GGTase were measured in the respective fluorescence assays as follows:
For the GGTase assay, GGTase (25 nM), Dansyl labelled GCVLL peptide (10 μM), GGPP (10 μM) and inhibitor were mixed in assay buffer (50 mM Tris, pH 7.5, 10 mM magnesium chloride, 10 μM zinc chloride, 0.08% CHAPS, 5 mM dithiothreitol) and incubated in a total volume of 20 μL at 30° C. for 120 minutes.
For both the FTase assay and GGTase assay, fluorescence intensity was detected (excitation at 340 nm and emission at 486 nm) using EnVision (PerkinElmer; Waltham, MA), IC50 determinations were performed using a sigmoidal dose-response model with Xlfit software (IDBS, Inc.; Boston, MA), and tipifarnib was used as a positive control. All the assay plates for each assay passed the QC criteria (S/B, Z factor).

[3] = Metabolic stability in human liver microsomes; type: in vitro ADME; settings: human liver microsomes 0.5 mg protein/mL, test compound 1 μM, 37° C.; read-out: T1/2 in HLM
Method: (§2) The metabolic stability of the compounds disclosed herein was determined by measuring half-life (T1/2) of the compounds in the presence of mouse liver microsomes (MLM) or human liver microsomes (BILM).
(§3) Intermediate solution: 5 μL of compound and control stock solution (10 mM in dimethyl sulfoxide (DMSO)) were diluted with 495 μL of acetonitrile (ACN) (intermediate solution concentration: 100 μM, 99% ACN).
(§4) Working solution: 50 μL of compound and control intermediate solution (100 μM) were diluted with 450 μL of 100 mM potassium phosphate buffer (working solution concentration: 10 μM, 9.9% ACN).
(§5) Controls used in this assay: Testosterone, Diclofenac, and Propafenone.
(§6) Preparation Procedure: The appropriate amount of NADPH powder was weighed and diluted into a 10 mM MgCl2 solution (working solution concentration: 10 unit/mL; final concentration in reaction system: 1 unit/mL).
(§7) The appropriate concentrations of microsome working solutions were prepared in 100 mM potassium phosphate buffer.
(§8) Cold (4° C.) acetonitrile (CAN) containing 200 ng/mL tolbutamide and 200 ng/mL labetalol as internal standards (IS) was used as the stop solution.
(§9) Using an Apricot automation workstation, 10 μL/well of compound working solution were added to all 96-well reaction plates except the blank (T0, T5, T10, T20, T30, T60, and NCF60).
(§10) An Apricot automation workstation was used to add 80 μL/well of microsome solution to all reaction plates (Blank, T0, T5, T10, T20, T30, T60, and NCF60).
(§11) All reaction plates containing mixtures of compound and microsomes were pre-incubated at 37° C. for 10 minutes.
(§12) An Apricot automation workstation was used to add 10 μL/well of 100 mM potassium phosphate buffer to reaction plate NCF60.
(§13) Reaction plate NCF60 was incubated at 37° C. for 60 minutes.
(§14) After pre-incubation, an Apricot automation workstation was used to add 10 μL/well of NADPH regenerating system to every reaction plate except NCF60 (Blank, T0, T5, T10, T20, T30, and T60) to start the reaction. Final concentration of each component in incubation medium: Microsome (0.5 mg protein/mL); Test Compound (1 μM); Control Compound (1 μM); Acetonitrile (0.99%); DMSO (0.01%).
(§15) The reaction plates were incubated at 37° C. for 0 minute (T0, stop solution was added prior to microsome and NADPH solutions), 5 minutes (T5), 10 minutes (T10), 20 minutes (T20), 30 minutes (T30), 60 minutes (T60).
(§16) An Apricot automation workstation was used to add 300 μL/well of stop solution to each reaction plate at its appropriate end time point to terminate the reaction.
(§17) Each plate was sealed and shaken for 10 minutes.
(§18) After shaking, each plate was centrifuged at 4000 rpm and 4° C. for 20 minutes.
(§19) During centrifugation, an Apricot automation workstation was used to add 300 µL/well of HPLC grade water to eight new 96-well plates.
(§20) After centrifugation, an Apricot automation workstation was used to transfer 100 μL of supernatant from each reaction plate to its corresponding bioanaylsis plate.
(§21) Each bioanalysis plate was sealed and shaken for 10 minutes prior to LC-MS/MS analysis.
(§22) The equation of first order kinetics was used to calculate T1/2 and CLint(mic) (μL/min/mg).

T24/83 cells = assay: T24/83 cell proliferation assay (CellTiter-Glo); type: cell-based; settings: Homo sapiens, 96 h, 4 days
Excerpt: as §1
Mutant oncogenic HRAS was originally identified in a human bladder carcinoma cell line called T24. T24/83 is a subline of T24 established more recently that has more favorable growth characteristics for in vitro assays. Thus, T24/83 is a well-characterized mutant HRAS-dependent cell line that is an ideal model for quantifying the HRAS-dependent antitumor activity of farnesyltransferase inhibitors.
T24/83 cells were inoculated into 384 well plates at 100 cells/well, and grown in the presence of inhibitor, 0.7% DMSO as a negative control, or 100 μM tipifarnib as a positive control, at 37° C. for 4 days. Cell viability was assessed using the CellTiter-Glo Kit (CTG) (Promega; Madison, WI). Luminescence was recorded using EnVision microplate reader (PerkinElmer; Waltham, MA). In this assay, tipifarmib was used as a positive control. All the assay plates passed the QC criteria (S/B, Z-factor).

[4] = Metabolic stability in mouse liver microsomes; type: in vitro ADME; settings: CD-1 mouse liver microsomes 0.5 mg protein/mL, test compound 1 μM, 37° C.; read-out: T1/2 in MLM
Method: as §2, §3, §4, §5, §6, §7, §8, §9, §10, §11, §12, §13, §14, §15, §16, §17, §18, §19, §20, §21, §22

Row | IC50 [1] | IC50 [2] | half-life at 1 μM [3] | IC50 (T24/83 cells) | half-life at 1 μM [4] | SMILES
1 | ≤ 10 nM | > 1000 nM | < 30 min | ≤ 50 nM | 5 to 15 min | Cn1cncc1[C@@]1(O)c2ccc(C#N)c(c2)CCc2cccc(c2)-c2cc(=O)n(C)c3ccc1cc23 [(R)-6, (R)-3-hydroxy-2^1-methyl-3-(1-methyl-1H-imidazol-5-yl)-2^2-oxo-2^1,2^2-dihydro-2(4,6)-quinolina-1,4(1,3)-dibenzenacyclohexaphane-4^4-carbonitrile]
2 | ≤ 10 nM | > 1000 nM | < 30 min | ≤ 50 nM | 5 to 15 min | Cn1cncc1[C@@]1(N)c2ccc(C#N)c(c2)CCc2cccc(c2)-c2cc(=O)n(C)c3ccc1cc23 [(R)-7, (R)-3-amino-2^1-methyl-3-(1-methyl-1H-imidazol-5-yl)-2^2-oxo-2^1,2^2-dihydro-2(4,6)-quinolina-1,4(1,3)-dibenzenacyclohexaphane-4^4-carbonitrile]
3 | ≤ 10 nM | > 1000 nM | < 30 min | ≤ 50 nM | 5 to 15 min | [2H]C([2H])([2H])n1c(=O)cc2c3cc(ccc31)[C@@](N)(c1cncn1C)c1ccc(C#N)c(c1)CCc1cccc-2c1 [(R)-8, (R)-3-amino-2^1-(methyl-d3)-3-(1-methyl-1H-imidazol-5-yl)-2^2-oxo-2^1,2^2-dihydro-2(4,6)-quinolina-1,4(1,3)-dibenzenacyclohexaphane-4^4-carbonitrile]
4 | ≤ 10 nM | > 1000 nM | < 30 min | ≤ 50 nM | 5 to 15 min | Cn1cncc1[C@@]1(O)c2ccc(Cl)c(c2)CCc2cccc(c2)-c2cc(=O)n(C)c3ccc1cc23 [(S)-3, (S)-4^4-chloro-3-hydroxy-2^1-methyl-3-(1-methyl-1H-imidazol-5-yl)-2^1,2^2-dihydro-2(4,6)-quinolina-1,4(1,3)-dibenzenacyclohexaphan-2^2-one]
5 | ≤ 10 nM | > 1000 nM | < 30 min | ≤ 50 nM | < 5 min | Cn1cncc1[C@@]1(N)c2ccc(Cl)c(c2)CCc2cccc(c2)-c2cc(=O)n(C)c3ccc1cc23 [(S)-4, (S)-3-amino-4^4-chloro-2^1-methyl-3-(1-methyl-1H-imidazol-5-yl)-2^1,2^2-dihydro-2(4,6)-quinolina-1,4(1,3)-dibenzenacyclohexaphan-2^2-one]
6 | ≤ 10 nM | > 1000 nM | 30 to 100 min | 50 to 500 nM | < 5 min | Cn1cncc1[C@@]1(O)c2ccc(Cl)c(c2)OCc2cccc(c2)-c2cc(=O)n(C)c3ccc1cc23 [(S)-14, (S)-4^4-chloro-3-hydroxy-2^1-methyl-3-(1-methyl-1H-imidazol-5-yl)-2^1,2^2-dihydro-5-oxa-2(4,6)-quinolina-1,4(1,3)-dibenzenacyclohexaphan-2^2-one]
7 | ≤ 10 nM | > 1000 nM | 30 to 100 min | 50 to 500 nM | < 5 min | Cn1cncc1[C@@]1(N)c2ccc(Cl)c(c2)OCc2cccc(c2)-c2cc(=O)n(C)c3ccc1cc23 [(S)-15, (S)-3-amino-4^4-chloro-2^1-methyl-3-(1-methyl-1H-imidazol-5-yl)-2^1,2^2-dihydro-5-oxa-2(4,6)-quinolina-1,4(1,3)-dibenzenacyclohexaphan-2^2-one]
8 | ≤ 10 nM | > 1000 nM | 30 to 100 min | ≤ 50 nM | 5 to 15 min | Cn1cncc1[C@@]1(O)c2ccc(C#N)c(c2)OCc2cccc(c2)-c2cc(=O)n(C)c3ccc1cc23 [(S)-18, (S)-3-hydroxy-2^1-methyl-3-(1-methyl-1H-imidazol-5-yl)-2^2-oxo-2^1,2^2-dihydro-5-oxa-2(4,6)-quinolina-1,4(1,3)-dibenzenacyclohexaphane-4^4-carbonitrile]
9 | ≤ 10 nM | > 1000 nM | > 100 min | ≤ 50 nM | > 15 min | [2H]C([2H])([2H])n1c(=O)cc2c3cc(ccc31)[C@@](N)(c1cncn1C)c1ccc(C#N)c(c1)OCc1cccc-2c1 [(S)-20, (S)-3-amino-2^1-(methyl-d3)-3-(1-methyl-1H-imidazol-5-yl)-2^2-oxo-2^1,2^2-dihydro-5-oxa-2(4,6)-quinolina-1,4(1,3)-dibenzenacyclohexaphane-4^4-carbonitrile]
10 | ≤ 10 nM | > 1000 nM | – | ≤ 50 nM | – | [2H]C([2H])([2H])n1c(=O)cc2c3cc(ccc31)[C@@](O)(c1cncn1C)c1ccc(C#N)c(c1)COc1cccc-2c1 [(S)-55, (S)-3-hydroxy-2^1-(methyl-d3)-3-(1-methyl-1H-imidazol-5-yl)-2^2-oxo-2^1,2^2-dihydro-6-oxa-2(4,6)-quinolina-1,4(1,3)-dibenzenacyclohexaphane-4^4-carbonitrile]
11 | ≤ 10 nM | > 1000 nM | – | ≤ 50 nM | – | Cn1cncc1[C@@]1(N)c2ccc(C#N)c(c2)COc2cccc(c2)-c2cc(=O)n(C3CC3)c3ccc1cc23 [(S)-57, (S)-3-amino-2^1-cyclopropyl-3-(1-methyl-1H-imidazol-5-yl)-2^2-oxo-2^1,2^2-dihydro-6-oxa-2(4,6)-quinolina-1,4(1,3)-dibenzenacyclohexaphane-4^4-carbonitrile]
